Test results as given in the supplement of paper PMC6045584.
± gives the standard deviation of the averaged measurements.

What was measured:
SUNITINIB = compound: CCN(CC)CCNC(=O)c1c(C)[nH]c(/C=C2\C(=O)Nc3ccc(F)cc32)c1C [SUNITINIB]; assay: surviving fraction relative to DMSO-only wells; higher = less growth inhibition; settings: exposure time: 5 days
Outline: (§1)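 Lines were retained only if, across three screens, replicate Pearson r was >0.7 and median Z' was >0.3. Viability was measured as CellTiter-Glo luminescence and reported as surviving fraction relative to the median of DMSO-only wells. Readings followed 10 minutes at room temperature, after log-phase tumour cells seeded at 250–500 per well in 384-well plates had been exposed, from 24 hours after seeding, continuously for five days to inhibitors at 0.5, 1, 5, 10, 50, 100, 500 and 1000 nM.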

[1] = compound: O=C(NOCC1CC1)c1ccc(F)c(F)c1Nc1ccc(I)cc1Cl; assay: as above; settings: exposure time: 5 days
Outline: as §1

Test System	surviving fraction (SUNITINIB; 0.5 nM)	surviving fraction (SUNITINIB; 1 nM)	surviving fraction (SUNITINIB; 5 nM)	surviving fraction (SUNITINIB; 10 nM)	surviving fraction (SUNITINIB; 50 nM)	surviving fraction (SUNITINIB; 100 nM)	surviving fraction (SUNITINIB; 500 nM)	surviving fraction (SUNITINIB; 1000 nM)	surviving fraction ([1]; 0.5 nM)	surviving fraction ([1]; 1 nM)	surviving fraction ([1]; 5 nM)	surviving fraction ([1]; 10 nM)	surviving fraction ([1]; 50 nM)	surviving fraction ([1]; 100 nM)	surviving fraction ([1]; 500 nM)	surviving fraction ([1]; 1000 nM)
BT549 BREAST	0.8 ± 0.11	0.861 ± 0.048	0.854 ± 0.065	0.794 ± 0.13	1.11 ± 0.13	1.12 ± 0.16	1.19 ± 0.11	0.785 ± 0.069	1.03 ± 0.11	1.07 ± 0.088	1.08 ± 0.23	1.14 ± 0.03	1.15 ± 0.062	1.21 ± 0.044	1.3 ± 0.067	1.23 ± 0.16
SCC90 HEADNECK		0.814 ± 0.086		0.887 ± 0.064		1.25 ± 0.17	0.819 ± 0.06	0.522 ± 0.052	0.786 ± 0.13	0.773 ± 0.081	0.991 ± 0.098	0.847 ± 0.16	0.672 ± 0.045	0.495 ± 0.12	0.235 ± 0.036	0.193 ± 0.037
U2OS BONE	0.882 ± 0.039	0.893 ± 0.032	0.95 ± 0.032		0.956 ± 0.026	0.94 ± 0.038	0.549 ± 0.014	0.262 ± 0.0072	1.03 ± 0.016	1.03 ± 0.019	1.02 ± 0.036	1.07 ± 0.042	0.983 ± 0.026	0.996 ± 0.035	0.95 ± 0.03	0.876 ± 0.03
SUM149.B1*.S BREAST	0.877 ± 0.07	0.786 ± 0.039		0.437 ± 0.023	0.988 ± 0.02	0.873 ± 0.022	0.789 ± 0.02	0.27 ± 0.0057	0.5813 ± 0.0045	0.956 ± 0.018	0.835 ± 0.058	0.945 ± 0.034	0.6543 ± 0.0045	0.789 ± 0.0088	0.503 ± 0.024	0.459 ± 0.05
MG63 BONE	0.872 ± 0.02	0.865 ± 0.034	0.876 ± 0.015		0.877 ± 0.028	0.854 ± 0.016	0.721 ± 0.025	0.637 ± 0.014	0.9313 ± 0.0065	0.969 ± 0.018	0.976 ± 0.016	0.997 ± 0.017	0.935 ± 0.0096	0.957 ± 0.011	0.85 ± 0.018	0.859 ± 0.022
MDAMB134 BREAST	0.675 ± 0.021	0.777 ± 0.087	0.715 ± 0.14	0.675 ± 0.022	0.887 ± 0.067		1.05 ± 0.22		0.871 ± 0.27	1.03 ± 0.16	0.933 ± 0.067	0.869 ± 0.075	0.809 ± 0.097	0.732 ± 0.11	0.556 ± 0.044	0.711 ± 0.15
SG32 HEADNECK		0.578 ± 0.032	0.771 ± 0.13	0.423 ± 0.078	0.96 ± 0.045	0.609 ± 0.062	0.317 ± 0.048	0.0993 ± 0.011	0.546 ± 0.12	0.858 ± 0.042	0.883 ± 0.22	1.03 ± 0.049	0.701 ± 0.085	0.805 ± 0.065	0.751 ± 0.059	0.818 ± 0.079
HCC70 BREAST	1.01 ± 0.029		1 ± 0.096	0.904 ± 0.045			1.15 ± 0.11		0.939 ± 0.029	0.963 ± 0.03	1.02 ± 0.049	0.956 ± 0.058	0.818 ± 0.041	0.773 ± 0.052	0.601 ± 0.022	0.528 ± 0.033
SIHA CERVIX	0.957 ± 0.088		0.972 ± 0.04	0.984 ± 0.028	1.11 ± 0.047	1.02 ± 0.086	0.725 ± 0.026	0.418 ± 0.04	0.754 ± 0.016	0.8147 ± 0.0075	0.955 ± 0.058	0.923 ± 0.027	0.899 ± 0.018	0.873 ± 0.06	0.709 ± 0.042	0.765 ± 0.067
